Holding throughout (format): biochemical
A short description of data set [1]: Alkaline phosphatase VFD vs batch enhancement, incl. steric crowding (Example 1). The conditions noted are these: VFD 10 minutes. The procedure: In a typical experiment, fast thermosensitive alkaline phosphatase (1 μL, 1 unit, Thermo-Fisher) was added to 10 mL of diethanolamine buffer (1.0 M diethanolamine buffer with 0.50 mM magnesium chloride at pH 9.8 at 25° C.) in creating an enzyme stock solution. This solution was stored on ice and not stored for more than two hours. p-nitrophenyl phosphate liquid substrate solution (500 μL, Sigma-Aldrich) was added to a 20 mm external diameter VFD tube. To this was added alkaline phosphatase enzyme solution (800 μL) and the tube was inserted into the VFD and immediately spun to the required rotational speed. The VFD tube was rotated about its axis for 10 minutes at a 45-degree tilt angle relative to the horizontal position. At the end of this time 4 M NaOH (150 μL) was added in quenching the reaction. The sample was then added to a 96-well reader plate and the absorbance read at 401 nm (being the λmax for this system with 150 μL NaOH quench). […] From a comparison of the absorption values of the VFD vs. batch an enhancement factor can be determined (FIGS. 3A-3N).
For the steric crowding studies the following method was performed. […] The sample was then added to a 96-well reader plate and the absorbance read at 401 nm (being the λmax for this system with 150 μL NaOH quench). […] From a comparison of the absorption values of the VFD vs. batch an enhancement factor can be determined (FIGS. 3A-3N).

The nature of data set [2]: Alkaline phosphatase VFD acceleration, crowding and centrifuge control (Example 4). How it is done: The enzyme-substrate solution (alkaline phosphatase and p-nitrophenol phosphate) was subjected to centrifugation in a bench top centrifuge at the indicated rotational speeds for 10 min. A direct comparison was then made between a VFD sample and a centrifuged sample (FIG. 12).
FAsTAP™ thermosensitive alkaline phosphatase (1.0 μL, 0.11 mM) was added to 10 mL of the diethanolamine buffer to generate an enzyme stock solution (11.1 nM). This solution was made fresh every two hours and stored on ice. Each sample was prepared by combining 0.800 mL of the enzyme stock solution and 0.500 mL of alkaline phosphatase liquid substrate system (pNPP, Sigma-Aldrich, 0.435 mM); this solution (1.3 mL) was added to either an Eppendorf or VFD sample tube. The reaction was incubated at 25° C. for 10 min unless otherwise indicated. […] The sample (100 μL) was then transferred to a 96-well micro plate reader, and the absorbance measured at 402 nm (λmax). […]
To explore the ability of VFD-mediated processing to overcome steric crowding reagents, two PEG polymers with average MW of 3350 and 8000 g/mol were added to the alkaline phosphatase-substrate solutions as follows. The appropriate quantities of PEG reagent for the indicated final concentrations were dissolved in diethanolamine buffer (total volume of 10.0 mL). […] The absorbance of the solution was then measured at 402 nm (FIG. 23).

A short description of data set [3]: Michaelis-Menton initial rates experiments, batch vs VFD (Table 1). The settings on record: Batch (non-VFD). The procedure: In determining if the observed acceleration is due to a kinetic or thermodynamic effect, the initial rates of each reaction were explored. All five enzymes were subjected typical kinetic experiments using the Michaelis-Menton model. The intrinsic values of the enzymes in a batch type and VFD system could be ascertained (Table 1).
To a 17.7 mm internal diameter VFD tube was added the substrate and enzyme in buffer at the appropriate concentration. The VFD tube was rotated about its axis at a specific rotational speed at an inclination angle of 45-degrees. After a set amount of time had elapsed, the rotation was immediately halted and the quenching reagent added. The exact same reaction was run alongside the VFD in mimicking a non-VFD process. From both the VFD processed and non-VFD processed sample an aliquot of 0.100 mL was removed and added to a 96 well plate and read at 405 nm to detect the production of p-nitrophenoxide. These measurements were carried out in triplicate and allow an accurate comparison to be drawn between VFD and non-VFD processing. For all alterations to this general protocol, assay and further experimental design, see supporting information.

A short description of data set [4]: Immobilized alkaline phosphatase reactor: continuous flow stability. The conditions noted are these: amine-glutaraldehyde cross linker, 10 h, 1 mL min^−1. How it is done:
FIG. 64 depicts amine-glutaraldehyde cross-linker immobilization. Glutaraldehyde solution (90 μL in 3.00 mL PBS) was added to a freshly coated sample tube. The sample tube was then capped, and inserted into a VFD. The sample tube was rotated at 8 krpm for 30 min to create the APTES-glutaraldehyde cross linker. After rotation, the sample tube was then rinsed with PBS (6×5 mL) and inverted to remove the majority of the buffer solution. The enzyme immobilization step was then carried out as described above. Following this, the sample tube was removed from the VFD and washed with PBS (5×5 mL, pH 8.0), and inverted to remove the majority of the buffer solution. The sample tube was then loaded back into the VFD before addition of NaBH3CN (18.8 mg) in sodium acetate buffer (50 mM, pH 5.0, 3.00 mL). The sample tube was then capped and rotated at 8 krpm for 30 min. […]
The p-nitrophenol phosphate substrate solution (0.01 M in 1.0 M diethanolamine) was prepared as follows: […] of diethanolamine was added to 1.0 L of H2O, then the pH of the solution was adjusted to pH 9.8 using 5 M HCl. […] The aliquot was then analyzed via absorption spectroscopy as described above. […]

“Also recorded” adds a separate entry of the source.

The Km is the concentration of substrate that gives half-maximal velocity.

Turning to alkaline phosphatase, the “enhancement compared to a non-VFD sample, crowded solution” value in data set [1] (6 mg/mL PEG8000 dopant, 45-degree tilt) is about 12 ×. Moreover, the “enhancement in activity compared to a non-VFD sample” value in data set [1] (45-degree tilt angle) is listed as about 6 ×. Moreover, the “enhancement of VFD-processed enzyme in high concentration of PEG 8000” value in data set [2] (PEG 8000 (6.00 mg/ml, 0.75 M)) was “≈ 9 fold”. Also, the “effect of centrifugation on enzymatic activity (control)” value in data set [2] (centrifuged at 14 krpm (17530 g), no VFD) is reported as “no increase in enzymatic activity”. In data set [3], the Michaelis constant (Km) was found to be 484 µM, the “Vmax (Mol/sec) Batch” value worked out at 2.271e-08 mol/s and the “kcat (sec^−1) Batch” value came out at 1 s⁻¹. Further, the “stability of immobilized enzyme in continuous flow” value in data set [4] is recorded as “stable levels of substrate conversion for 10 h; also recorded: good stability over 10 h of processing”.

(Values after patent publication US11300567B2, “Methods and compositions for protein purification and enzyme reaction” (THE REGENTS OF THE UNIVERSITY OF CALIFORNIA, priority 2015, dated 2022).)
